Broadly, the pIC50 is −log10 of the IC50, conventionally taken in molar units.

pIC50: −log10 of the molar value. The source made the active and inactive calls. The calls are words filed in the database; no cut-off is given here.

One data set has as its target CDK8/Cyclin C (Homo sapiens, UniProt P49336). In words: Inhibition of kinase tracer 236 binding to His tagged recombinant human CDK8/cyclin C incubated for 60 min FRET based LanthaScreen Eu-Kinase binding assay. Format: protein-complex assay. On the technique in general: TR-FRET usually uses a lanthanide donor and a delayed reading to cut background.
A short description of data set [1]: Inhibition of NF kappa B dependent CDK8/CDK19 in HEK293 cell incubated for 3 hrs in presence of TNF-alpha by Spectra max microtitre plate reader. Format: cell-based. The note with it: Homo sapiens, HEK293, 3 h.
Data set [2] can be described thus: Inhibition of CDK8/CDK19 in MV4-11 cells and measured after 7 days by Spectra max iD5 microplate reader. Format: cell-based, Homo sapiens.
In data set [3] the target is T1, Cyclin-C/Cyclin-dependent kinase 19 (Homo sapiens) (UniProt Q9BWU1+P24863). In words: Binding affinity to recombinant human CDK19/cyclinC assessed as rate constant (koff) by TR FRET based assay. The class given is protein-complex assay.
For data set [4], the target named is T2, CDK8/Cyclin C (Homo sapiens) (UniProt P49336+P24863). Kind of data set: Binding affinity to kinase tracer 236 binding to His tagged recombinant human CDK8/cyclinC assessed as rate constant (koff) by TR FRET based assay. Format: protein-complex assay.
The target of data set [5] is T1, Cyclin-C/Cyclin-dependent kinase 19 (Homo sapiens). In words: Binding affinity to recombinant human CDK19/cyclinC assessed as half life by TR FRET based assay. Format: protein-complex assay.
Data set [6] shares this target. In words: Binding affinity to recombinant human CDK19/cyclinC assessed as rate constant (kon) by TR FRET based assay. Format: protein-complex assay.
For data set [7], the target named is T2, CDK8/Cyclin C (Homo sapiens). In words: Binding affinity to kinase tracer 236 binding to His tagged recombinant human CDK8/cyclinC assessed as half life by TR FRET based assay. The class given is protein-complex assay.
Data set [8] shares this target. Kind of data set: Binding affinity to kinase tracer 236 binding to His tagged recombinant human CDK8/cyclinC assessed as rate constant (kon) by TR FRET based assay. The class given is protein-complex assay.
The subject of data set [9] is HEK293. Kind of data set: Downregulation of CDK8/19 in HEK293 cells assessed as reversal of mRNA expression level in KCTD12 gene at 1 uM for 3 hr pretreatment and measured after 3 hr post wash-off by qt-PCR analysis. The class given is functional, cell-based. The note with it: Homo sapiens, time 6.0 hrs.
Data set [10] can be described thus: Metabolic stability in human hepatocyte assessed as intrinsic clearance at 2 uM measured per 10^6 by LC-MS/MS analysis. Format: ADME, cell-based. The note with it: hepatocytes.
Data set [11] relates to HEK293. In words: Downregulation of CDK8/19 in HEK293 cells assessed as reversal of mRNA expression level in MYC gene at 1 uM for 3 hr pretreatment and measured after 3 hr post wash-off by qt-PCR analysis. The class given is functional, cell-based. The note with it: Homo sapiens, time 6.0 hrs.
Data set [12] addresses T2, CDK8/Cyclin C (Homo sapiens). Kind of data set: Binding affinity to kinase tracer 236 binding to His tagged recombinant human CDK8/cyclinC assessed as mean residence time by TR FRET based assay. Format: protein-complex assay.
In data set [13] the target is T1, Cyclin-C/Cyclin-dependent kinase 19 (Homo sapiens). Kind of data set: Binding affinity to recombinant human CDK19/cyclinC assessed as mean residence time by TR FRET based assay. The class given is protein-complex assay.

Sequence of CDK8/Cyclin C (P49336 whole entry): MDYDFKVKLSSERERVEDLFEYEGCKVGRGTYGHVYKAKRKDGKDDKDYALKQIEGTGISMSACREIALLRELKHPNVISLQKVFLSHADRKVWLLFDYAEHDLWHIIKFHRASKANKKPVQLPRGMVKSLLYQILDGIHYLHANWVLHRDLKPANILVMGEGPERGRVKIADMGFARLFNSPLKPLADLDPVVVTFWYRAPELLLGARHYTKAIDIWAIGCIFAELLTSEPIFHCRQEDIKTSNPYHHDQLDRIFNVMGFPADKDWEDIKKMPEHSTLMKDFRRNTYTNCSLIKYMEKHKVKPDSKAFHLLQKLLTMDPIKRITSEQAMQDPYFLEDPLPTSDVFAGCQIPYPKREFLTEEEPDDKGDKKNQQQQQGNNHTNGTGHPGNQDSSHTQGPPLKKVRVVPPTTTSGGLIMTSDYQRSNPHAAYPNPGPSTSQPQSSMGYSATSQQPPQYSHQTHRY
Sequence of CDK8/Cyclin C (P24863 whole entry, further chain): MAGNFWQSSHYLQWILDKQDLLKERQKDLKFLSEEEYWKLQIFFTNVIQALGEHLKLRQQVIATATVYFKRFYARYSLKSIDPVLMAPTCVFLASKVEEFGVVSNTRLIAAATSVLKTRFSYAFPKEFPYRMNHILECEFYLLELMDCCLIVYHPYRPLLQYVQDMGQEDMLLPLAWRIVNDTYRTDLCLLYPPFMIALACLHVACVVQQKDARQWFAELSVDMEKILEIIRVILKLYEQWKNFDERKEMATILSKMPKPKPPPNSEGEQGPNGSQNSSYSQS

Take `N#Cc1ccc2nccc(NCCc3ccc4cc(C(=O)N5CCN(CCCN)CC5)ccc4c3)c2c1`: the pIC50 on CDK8/Cyclin C is 8.19; in [1], 6.06; in data set [2], 6.52.

As for `N#Cc1ccc2nccc(NCCc3ccc4cc(C(=O)N5CCSCC5)ccc4c3)c2c1`, the pIC50 on CDK8/Cyclin C was 8.04; in [1], 6.86; in data set [2] it was 7.03.

Consider `CN(CCCNC(=O)OC(C)(C)C)C(=O)c1ccc2cc(CCNc3ccnc4ccc(C#N)cc34)ccc2c1`, for which the pIC50 at CDK8/Cyclin C was 8.03; in [1] it was 6.68; in data set [2] it was 6.76.

Consider `CN(CCCN)C(=O)c1ccc2cc(CCNc3ccnc4ccc(C#N)cc34)ccc2c1`, for which the negative logarithm of the IC50 (pIC50) was 8.04 on CDK8/Cyclin C, 6.93 in [1] and 6.53 in data set [2].

On to `NC(=O)c1ccc2nccc(NCCc3ccccc3)c2c1`, for which the values for the pIC50 (at CDK8/Cyclin C; in data set [1]) were below 6.00 and below 5.30, respectively.

Consider `CN1CCN(C(=O)c2ccc3cc(CCNc4ncnc5ccc(C#N)cc45)ccc3c2)CC1` [SENEXIN B], for which the K is 0.00628 s⁻¹ in data set [3], 0.00325 s⁻¹ in [4], 2.13 10^6/M/s in data set [6] and 1.65 10^6/M/s in data set [8]. For the same compound, the T1/2 in data set [5] worked out at 1.84 min; in [7] it was 3.55 min. The outcome in the data set on HEK293 [9] and with HEK293 [11] was inactive. The CLH in data set [10] is 0.0198 mL/min. The MRT in [12] stood at 5.13 min; in data set [13], 2.65 min.

As for `Clc1ccc2nccc(NCCc3ccccc3)c2c1`, the negative logarithm of the IC50 (pIC50) is 7.36 at CDK8/Cyclin C and below 5.30 in [1].

Take `CNC(=O)c1ccc2nccc(NCCc3ccccc3)c2c1`: the negative logarithm of the IC50 (pIC50) on CDK8/Cyclin C is below 6.00; in data set [1], below 5.30.

As for `c1ccc(CCNc2ccnc3ccccc23)cc1`, the negative logarithm of the IC50 (pIC50) on CDK8/Cyclin C is below 6.00; in data set [1] it was below 5.30.

As for `N#Cc1ccc2ncnc(NCCc3ccccc3)c2c1`, the values for the pIC50 (at CDK8/Cyclin C; in data set [1]; in data set [2]) were 7.46, 6.46 and 6.00, respectively.

With `N#Cc1ccc2nccc(NCCc3ccc4cc(C(=O)N5CC[S+]([O-])CC5)ccc4c3)c2c1`, the results for the pIC50 (on CDK8/Cyclin C; in [1]; in data set [2]) were 8.24, 6.80 and 6.65, respectively.

Turning to `Nc1ccc2nccc(NCCc3ccccc3)c2c1`, the values for the pIC50 (on CDK8/Cyclin C; in data set [1]) were below 6.00 and below 5.30, respectively.

For `CC(C)(C)OC(=O)NCCCN1CCN(C(=O)c2ccc3cc(CCNc4ccnc5ccc(C#N)cc45)ccc3c2)CC1`, the negative logarithm of the IC50 (pIC50) on CDK8/Cyclin C was 8.09; in data set [1], 7.09; in [2], 6.78.

As for `FC(F)(F)c1ccc2nccc(NCCc3ccccc3)c2c1`, the negative-log IC50 (pIC50) on CDK8/Cyclin C was 6.45; in data set [1], below 5.30.

Take `Ic1ccc2nccc(NCCc3ccccc3)c2c1`: the pIC50 on CDK8/Cyclin C is 6.67; in data set [1], below 5.30.

`CC(C)(C)OC(=O)N1CCN(C(=O)c2ccc3cc(CCNc4ccnc5ccc(C#N)cc45)ccc3c2)CC1`: the negative-log IC50 (pIC50) was 7.72 at CDK8/Cyclin C, 6.86 in [1] and 6.68 in data set [2].

Regarding `N#Cc1ccc2nccc(NCCc3ccc4cc(C(=O)N5CCS(=N)(=O)CC5)ccc4c3)c2c1`, the pIC50 is 8.34 on CDK8/Cyclin C, 6.61 in data set [1] and 6.57 in [2].

`Brc1ccc2nccc(NCCc3ccccc3)c2c1`: the values for the pIC50 (at CDK8/Cyclin C; in data set [1]) were 6.74 and below 5.30, respectively.

`CC(=O)N1CCN(C(=O)c2ccc3cc(CCNc4ccnc5ccc(C#N)cc45)ccc3c2)CC1`: the pIC50 at CDK8/Cyclin C is 7.92; in data set [1], 6.74; in data set [2], 6.53.

For the origin of these results see ChEMBL document CHEMBL5046270, “A Selective and Orally Bioavailable Quinoline-6-Carbonitrile-Based Inhibitor of CDK8/19 Mediator Kinase with Tumor-Enriched Pharmacokinetics” (J Med Chem, 2022).
